Reference: paper PMC11178787, “Development of a natural product optimization strategy for inhibitors against MraY, a promising antibacterial target” (Nature Communications, 2024)
Values after ≈ are worked out from the molar mass of the structure shown.

Columns and labels:
K. pneumoniae ATCC 13883 = test system: T1, K. pneumoniae ATCC 13883; test: microbe, parasite or virus in culture; conditions: Klebsiella pneumoniae, ATCC13883
T1 construct: ATCC 13883

S. aureus ATCC 29213 = test system: T2, S. aureus ATCC 29213; test: microbe, parasite or virus in culture; conditions: Staphylococcus aureus, ATCC29213
T2 construct: ATCC 29213

Question: What does the source list for `CN[C@H](CC(C)C)C(=O)N[C@H]1C(=O)N[C@@H](CC(N)=O)C(=O)N[C@H]2C(=O)N[C@H]3C(=O)N[C@H](C(=O)N[C@H](C(=O)O)c4cc(O)cc(O)c4-c4cc3ccc4O)[C@H](O)c3ccc(c(Cl)c3)Oc3cc2cc(c3O[C@@H]2O[C@H](CO)[C@@H](O)[C@H](O)[C@H]2O[C@H]2C[C@](C)(N)[C@H](O)[C@H](C)O2)Oc2ccc(cc2Cl)[C@H]1O` [vancomycin]?
Answer: MIC (K. pneumoniae ATCC 13883): > 50 µM; MIC (S. aureus ATCC 29213): < 0.5 µM

Question: Which MIC (K. pneumoniae ATCC 13883) does the source give for `CC1(C)S[C@@H]2[C@H](NC(=O)[C@H](N)c3ccccc3)C(=O)N2[C@H]1C(=O)O` [ampicillin] here?
Answer: > 50 µM

Question: What about the MIC (S. aureus ATCC 29213) of the same molecule?
Answer: 5 µM (≈ 1.75 µg/mL)
